Measurements published in patent publication US20250332112A1, “IONIZABLE CATIONIC LIPIDS FOR LIPID NANOPARTICLES” (GENEVANT SCIENCES GMBH, priority 2022, published 2025).

How the values were obtained:
[1] = test system: EGFP expression in the liver; assay: EGFP expression in liver after intravenous EGFP mRNA LNP (ELISA); conditions: 0.5 mg/kg IV, 24 h post-IV administration, BALB/c mice (n = 4)
[2] = Parent ionizable lipid remaining in liver at 24 h after EGFP mRNA LNP (LC-MS); format: in vivo; conditions: 24 h after IV 0.5 mg/kg EGFP mRNA LNP, female BALB/c mice (n = 4)
Method: Liver tissues were treated with PBS and homogenized with a FastPrep machine, 3 cycles of 5 m/s×15 s. Homogenates from the PBS-treated control animals was pooled and used for standard curve preparation. Samples were extracted into a deep well plate with 250 μL of an internal suitability standard. Plates were centrifuged for 15 min at 4° C. and 2000 rpm. Analysis was performed using an Agilent 6520 QTOF coupled to an Agilent 1290 UHPLC, using reverse-phase LC separation. Quantitation of the ionizable lipid was by MS/MS against a calibration curve spiked into appropriately matched blank matrix. Calibration used a similar class of synthetic lipid as internal standard.
At 24 h post-dose, some treatment groups reported lower levels of novel ionizable lipid in mouse liver compared to the benchmark (Tables 28-31).

[3] = Particle characteristics of LNPs containing EGFP mRNA and novel ionizable lipids; format: physicochemical; conditions: EGFP mRNA LNP 1.6:54.6:32.8:10.9
Method: The lipid solution contains 4 components: a PEG-conjugated lipid, an ionizable lipid, cholesterol, and a phospholipid (e.g., DSPC). Lipid stocks were prepared using the lipid identities and molar ratios as described, to achieve a total concentration of ˜7 mg/mL in 100% ethanol. […] Equal volumes of the lipid and nucleic acid solutions were blended at a flow rate of 400 mL/min through a T-connector, and diluted with ˜4 volumes of PBS, pH 7.4. Formulations were placed in Slide-A-Lyzer dialysis units (MWCO 10,000) and dialyzed overnight against 10 mM Tris, 500 mM NaCl, pH 8 buffer. Following dialysis, the formulations were concentrated to ˜0.6 mg/mL using VivaSpin concentrator units (MWCO 100,000) and dialyzed overnight against 5 mM Tris, 10% sucrose, pH 8 buffer. Formulations were filtered through a 0.2 μm syringe filter (PES membrane). Nucleic acid concentration was determined by the RiboGreen assay. Particle size and polydispersity were determined using a Malvern Nano Series Zetasizer.
LNP formulations containing novel ionizable lipids all produced stable particles with high encapsulation efficiency (Tables 20-23).

SMILES	EGFP ([1]; Table 25) [pg/g liver]	Parent ionizable lipid remaining in liver, Average ([2]; Table 29) [nmol/g liver]	Final Product % EE ([3]; Table 21) [%]	Final Product PDI ([3]; Table 21)	Final Product Z-avg ([3]; Table 21) [nm]	EGFP ([1]; Table 26) [pg/g liver]	Parent ionizable lipid remaining in liver, Average ([2]; Table 30) [nmol/g liver]	Final Product % EE ([3]; Table 22) [%]	Final Product PDI ([3]; Table 22)	Final Product Z-avg ([3]; Table 22) [nm]
CCCCCC/C=C\CCON(C(=O)CCCCN(C)C)C(CCCCCCCCCC)CCCCCCC(=O)OCCC(CCCCCCC)CCCCCCC (stereo not drawn) [Compound 98, 3-Heptyldecyl (Z)-8-(N-(dec-3-en-1-yloxy)-5-(dimethylamino)pentanamido)octadecanoate]	9.76E+05	30.21	99	0.06	84					
CCCCCCCCCCON(C(=O)CCCCN(C)C)C(CCCCCCCCCC)CCCCCCC(=O)OCCC(CCCCCCC)CCCCCCC (stereo not drawn) [Compound 99, 3-Heptyldecyl 8-(N-(decyloxy)-5-(dimethylamino)pentanamido)octadecanoate]	1.05E+06	19.93	97	0.04	86					
CCCCCC/C=C\CCON(C(=O)CCCN(C)C)C(CCCCCCCCCC)CCCCCCC(=O)OCCC(CCCCC)CCCCC (stereo not drawn) [Compound 100, 3-Pentyloctyl (Z)-8-(N-(dec-3-en-1-yloxy)-4-(dimethylamino)butanamido)octadecanoate]	5.98E+05	5.03	98	0.08	72					
CCCCCCCCCCN(C(=O)CCCN(C)C)C(CCCCCCCCC)CCCCC(F)(F)C(=O)OCC(CCCCCC)CCCCCCCC (stereo not drawn) [Compound 102, 2-Hexyldecyl 7-(N-decyl-4-(dimethylamino)butanamido)-2,2-difluorohexadecanoate]	1.94E+05	5.72	98	0.09	67					
CCCCCCCCCCN(C(=O)CCCN(C)C)C(CCCCCCCCC)CCCCC(F)(F)C(=O)OCCC(CCCCCC)CCCCCC (stereo not drawn) [Compound 103, 3-Hexylnonyl 7-(N-decyl-4-(dimethylamino)butanamido)-2,2-difluorohexadecanoate]	9.54E+04	0.00	98	0.09	67					
CCCCCCCCCCN(C(=O)CCCN(C)C)C(CCCCCCCCC)CCCCCCC(F)(F)C(=O)OC(CCCCCCCC)CCCCCCCC (stereo not drawn) [Compound 104, Heptadecan-9-yl 9-(N-decyl-4-(dimethylamino)butanamido)-2,2-difluorooctadecanoate]						7.36E+06	51.14	99	0.07	74
CCCCCCCCCCC(CCCCCCC(=O)OCCC(CCCCCC)CCCCCC)N(CCCCCCCCCC)C(=O)OCCCN(C)C (stereo not drawn) [Compound 105, 3-hexylnonyl 8-(decyl((3-(dimethylamino)propoxy)carbonyl)-amino) octadecanoate]						1.86E+07	18.96	97	0.08	82
CCCCCCCCCCON(C(=O)CCCN(C)C)C(CCCCCCCCCC)CCCCCCC(F)(F)C(=O)OC(CCCCCCC)CCCCCCC (stereo not drawn) [Compound 106, Pentadecan-8-yl 9-(N-(decyloxy)-4-(dimethylamino)butanamido)-2,2-difluoro-nonadecanoate]						2.45E+07	56.97	95	0.13	73
CCCCCCCCCCC(CCCCCCC(=O)OCC(CCCCCC)CCCCCCCC)N(CCCCCCCCCC)C(=O)CCN(C)C (stereo not drawn) [Compound 107, 2-Hexyldecyl 8-(N-decyl-3-(dimethylamino)propanamido)octadecanoate]						3.66E+07	28.74	98	0.06	76
CCCCCCCCCCN(C(=O)CCCN(C)C)C(CCCCCCCCC)CCCCC(F)(F)C(=O)OC(CCCCC)CCCCC (stereo not drawn) [Compound 108, Undecan-6-yl 7-(N-decyl-4-(dimethylamino)butanamido)-2,2-difluorohexadecanoate]						5.41E+07	3.86	95	0.07	80
CCCCCCCCCCN(C(=O)CCCN(C)C)C(CCCCCCCCC)CCCCC(F)(F)C(=O)OC(CCCCCCCC)CCCCCCCC (stereo not drawn) [Compound 110, Heptadecan-9-yl 7-(N-decyl-4-(dimethylamino)butanamido)-2,2-difluorohexadecanoate]						4.01E+07	33.07	98	0.11	67
CCCCCCCCCCN(C(=O)CCCN(C)C)C(CCCCCCCCC)CCCCCCC(F)C(=O)OC(CCCCC)CCCCC (stereo not drawn) [Compound 112, Undecan-6-yl 9-(N-decyl-4-(dimethylamino)butanamido)-2-fluorooctadecanoate]						4.78E+07	1.73	95	0.08	82
CCCCCCCCCCN(C(=O)CCCN(C)C)C(CCCCCCCCC)CCCCCCC(F)C(=O)OC(CCCCCC)CCCCCC (stereo not drawn) [Compound 113, Tridecan-7-yl 9-(N-decyl-4-(dimethylamino)butanamido)-2-fluorooctadecanoate]						3.45E+07	4.68	98	0.05	72
CCCCCCCCCCN(C(=O)CCCN(C)C)C(CCCCCCCCC)CCCCCCC(F)C(=O)OC(CCCCCCC)CCCCCCC (stereo not drawn) [Compound 114, Pentadecan-8-yl 9-(N-decyl-4-(dimethylamino)butanamido)-2-fluorooctadecanoate]						4.29E+07	12.79	98	0.08	73
CCCCCCCCCCC(CCCCCCC(=O)OC(CCCCCC)CCCCCC)N(CCCCCCC(F)(F)C(=O)OC(CCCCCC)CCCCCC)C(=O)CCCN(C)C (stereo not drawn) [Compound 116, Tridecan-7-yl 8-(N-(7,7-difluoro-8-oxo-8-(tridecan-7-yloxy)octyl)-4-(dimethylamino)-butanamido)octadecanoate]						2.93E+07	60.05	98	0.09	75
CCCCCCCCCCC(CCCCCCC(=O)OC(CCCCCCC)CCCCCCC)N(CCCCCCC(F)(F)C(=O)OC(CCCCCCC)CCCCCCC)C(=O)CCCN(C)C (stereo not drawn) [Compound 117, Pentadecan-8-yl 8-(N-(7,7-difluoro-8-oxo-8-(pentadecan-8-yloxy)octyl)-4-(dimethylamino)butanamido)octadecanoate]						3.15E+07	49.53	99	0.06	80
CCCCCCCCCCC(CCCCCCC(=O)OC(CCCCCCCC)CCCCCCCC)N(CCCCCCC(F)(F)C(=O)OC(CCCCCCCC)CCCCCCCC)C(=O)CCCN(C)C (stereo not drawn) [Compound 118, Heptadecan-9-yl 8-(N-(7,7-difluoro-8-(heptadecan-9-yloxy)-8-oxooctyl)-4-(dimethylamino)butanamido)octadecanoate]						1.86E+07	62.81	98	0.06	83
CCCCCCCCCCC(CCCCCCCC(=O)OCC(CCCCCC)CCCCCCCC)N(CCCCCCCCCC)C(=O)CCN(C)C (stereo not drawn) [Compound 119, 2-Hexyldecyl 9-(N-decyl-3-(dimethylamino)propanamido)nonadecanoate]						1.60E+07	25.25	97	0.09	73
